Values of other authors, collected in patent publication US5668134A, “Method for preventing or reducing photosensitivity and/or phototoxicity reactions to medications” (priority 1994, dated 1997).

Test system: skin
Details: Table 1; cited from earlier work

| SMILES | Action Spectrum | Type of Photoreaction |
| --- | --- | --- |
| CCCCNC(=O)NS(=O)(=O)c1ccc(C)cc1 [tolbutamide] | 290-360 nm | – |
| CN(C)N=Nc1[nH]cnc1C(N)=O [DTIC] | – | Phototoxic |
| O=c1[nH]cc(F)c(=O)[nH]1 [fluorouracil, 5-fluoro-2,4 (1H,3H)-pyrimidinedione] | – | Phototoxic |
| CN(Cc1cnc2nc(N)nc(N)c2n1)c1ccc(C(=O)N[C@@H](CCC(=O)O)C(=O)O)cc1 [methotrexate] | – | Phototoxic |
| C=C[C@H]1C[N@@]2CC[C@H]1C[C@@H]2[C@@H](O)c1ccnc2ccc(OC)cc12 [Quinidine] | – | Photoallergic |
| C=C[C@H]1C[N@@]2CC[C@H]1C[C@H]2[C@H](O)c1ccnc2ccc(OC)cc12 [quinine] | – | Photoallergic |
| CNC1=Nc2ccc(Cl)cc2C(c2ccccc2)=[N+]([O-])C1 [Chlordiazepoxide] | 290-360 nm | Photoallergic |
| CCn1cc(C(=O)O)c(=O)c2ccc(C)nc21 [nalidixic acid] | 320-400 nm | – |
| CC[C@]1(O)C[C@@H]2CN(CCc3c([nH]c4ccccc34)[C@@](C(=O)OC)(c3cc4c(cc3OC)N(C)[C@H]3[C@@](O)(C(=O)OC)[C@H](OC(C)=O)[C@]5(CC)C=CCN6CC[C@]43[C@@H]65)C2)C1 [vinblastine] | – | Phototoxic |

Same assay, conditions: cited from earlier work

| SMILES | Action Spectrum |
| --- | --- |
| CCCNC(=O)NS(=O)(=O)c1ccc(Cl)cc1 [chlorpropamide] | 290-360 nm |
| COC1=CC(=O)C[C@@H](C)[C@]12Oc1c(Cl)c(OC)cc(OC)c1C2=O [griseofulvin] | 320-400 nm |
| C=C[C@H]1C[N@@]2CC[C@H]1C[C@@H]2[C@@H](O)c1ccnc2ccc(OC)cc12 [Quinidine] | 320-400 nm |
| C=C[C@H]1C[N@@]2CC[C@H]1C[C@H]2[C@H](O)c1ccnc2ccc(OC)cc12 [quinine] | 320-400 nm |
